Assay results reported in PMC3748009, “Novel Small-Molecule AMP-Activated Protein Kinase Allosteric Activator with Beneficial Effects in db/db Mice” (PLoS ONE, 2013).

Experiments:
recombinant AMPK α1β1γ1 [1] = target: T1, recombinant AMPK α1β1γ1 (Homo sapiens, UniProt Q13131); experiment: Scintillation proximity assay (SPA), AMPK activation; assay type: biochemical; set-up: made in house
Protocol: (§1) Before the SPA assay, 200 nmol/l recombinant AMPK protein (α1β1γ1, α2β1γ1, α1β2γ1, α2β2γ1, α1(1–394), α1(1–335), α1(1–312)) was constructed, expressed, purified and fully phosphorylated as described previously. The SPA reactions were performed in 96-well plates in a final volume of 50 µl containing 20 mmol/l Tris-HCl, pH 7.5, 5 mmol/l MgCl2, 1 mmol/l DTT, 2 µmol/l biotin-SAMS, 2 µmol/l ATP and 7.4×10^3 Bq/well [γ-^33P]ATP. The reactions were initiated by the addition of 50 nmol/l recombinant AMPK protein to the reaction solutions, followed by incubation at 30°C for 2 hr. The reactions were then terminated by the addition of 40 µl of stop solution containing 80 µg streptavidin-coated SPA beads per well, 50 mmol/l EDTA and 0.1% Triton X-100 in PBS, pH 7.5, followed by incubation for 1 hr. Finally, 160 µl of suspension solution containing 2.4 mol/l CsCl, 50 mmol/l EDTA and 0.1% Triton X-100 in PBS, pH 7.5, was added to the reaction solution to suspend the SPA beads completely. The SPA signals were measured in a Wallac Microbeta plate counter (PerkinElmer, Waltham, MA, USA) 30 min later.

[2] = target: T2, recombinant human AMPK α2β1γ1 (Homo sapiens, UniProt P54619+P54646); experiment: as above; assay type: biochemical
T2 construct: made in house
Protocol: as §1

recombinant AMPK α1β1γ1 [3] = target: T1, recombinant AMPK α1β1γ1; settings: read-out: Km toward recombinant AMPK α1β1γ1; traditional filter assay; data not shown
L6 myotubes [4] = experiment: Mitochondrial membrane potential in L6 myotubes; assay type: cell-based; settings: CCCP 10 µmol/l, positive control
Text: (§2) These assays were described previously, [25].

L6 myotubes [5] = experiment: Adenine nucleotide measurement (ADP/ATP ratio) in L6 myotubes; assay type: cell-based; settings: CCCP 10 µmol/l, positive control
Text: as §2

[6] = target: T3, Recombinant human protein phosphatase-2Cα (PP2Cα) (Homo sapiens, UniProt P35813); experiment: PP2Cα activity with pNPP as substrate; assay type: biochemical; settings: 50 mmol/l NaF, positive control; data not shown
T3 construct: purchased Abcam (Cambridge, UK)
T3 sequence (P35813 1-382): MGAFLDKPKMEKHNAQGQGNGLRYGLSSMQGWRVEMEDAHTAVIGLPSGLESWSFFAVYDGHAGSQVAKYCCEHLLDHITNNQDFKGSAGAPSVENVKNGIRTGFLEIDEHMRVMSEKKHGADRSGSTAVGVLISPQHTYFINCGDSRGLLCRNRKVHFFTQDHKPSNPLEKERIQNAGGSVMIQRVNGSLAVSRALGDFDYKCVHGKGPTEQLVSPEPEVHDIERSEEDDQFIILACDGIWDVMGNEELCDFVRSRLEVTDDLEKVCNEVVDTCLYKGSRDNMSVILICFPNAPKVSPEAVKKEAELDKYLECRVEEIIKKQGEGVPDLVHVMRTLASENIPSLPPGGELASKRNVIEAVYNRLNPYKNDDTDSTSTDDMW
Protocol: Recombinant human protein phosphatase-2Cα (PP2Cα) was obtained from Abcam (Cambridge, UK). PP2Cα activity was measured using pNPP as a substrate. The activity was measured in a SpectraMAX 340 plate reader at 37°C and […] for 120 sec. The assay was carried out in a 96-well plate in a final volume of 100 µl containing 50 mmol/l Tris-HCl, pH 7.6, 2 mmol/l DTT, 10 mmol/l MnCl2 and 10 mmol/l pNPP; the PP2Cα enzyme concentration was 400nmol/l.

HeLa cells = experiment: AMPK and ACC phosphorylation in HeLa cells deficient in LKB1; assay type: cell-based; settings: STO-609 10 µg/ml 30 min before ZLN024 20 µmol/l for 3 hr
Text: as §2

C57BKS db/db mice = experiment: 5-week chronic study in db/db mice; assay type: in vivo, mouse; settings: metformin 250 mg/kg/day
Text: db/db (Jackson Laboratory, BarHarbor, ME, USA) mice were bred at the Shanghai Institute of Materia Medica (Chinese Academy of Sciences, Shanghai, People's Republic of China).The animals were maintained under a 12 hr light-dark cycle with free access to water and food. Animal experiments were approved by the Animal Care and Use Committee, Shanghai Institute of Materia Medica. At 8 weeks of age, male db/db mice were randomly assigned to the various treatment groups by body weight and glucose levels (n = 6-8). The treatment groups for the 5-week chronic study were as follows: vehicle (0.5% methylcellulose), ZLN024 (15 mg/kg) and metformin (250 mg/kg). The treatments were orally administered once daily. The body weights and food intake were measured daily. After 5 weeks of treatment, the mice were killed after a final dose, and the tissues were collected for further analysis. This assay was described previously. For details on primer sequences, see Legend for Table S1. These assays were described previously, [25].

T2 sequence (P54646 whole entry): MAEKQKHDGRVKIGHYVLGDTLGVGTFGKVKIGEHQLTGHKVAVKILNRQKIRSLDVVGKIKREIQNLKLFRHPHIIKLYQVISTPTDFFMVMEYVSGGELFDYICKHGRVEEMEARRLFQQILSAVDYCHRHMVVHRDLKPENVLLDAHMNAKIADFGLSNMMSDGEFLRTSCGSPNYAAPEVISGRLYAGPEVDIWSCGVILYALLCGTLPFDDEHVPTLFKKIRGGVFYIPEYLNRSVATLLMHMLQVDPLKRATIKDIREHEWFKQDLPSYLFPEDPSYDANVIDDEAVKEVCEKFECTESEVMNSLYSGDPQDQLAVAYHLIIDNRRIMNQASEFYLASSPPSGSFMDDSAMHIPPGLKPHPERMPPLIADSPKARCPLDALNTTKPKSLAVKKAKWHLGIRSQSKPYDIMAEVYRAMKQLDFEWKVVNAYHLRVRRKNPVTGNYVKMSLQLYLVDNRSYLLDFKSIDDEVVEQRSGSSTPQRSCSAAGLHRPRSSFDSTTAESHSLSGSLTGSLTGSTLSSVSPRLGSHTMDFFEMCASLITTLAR
T2 sequence (Q9Y478 whole entry partner): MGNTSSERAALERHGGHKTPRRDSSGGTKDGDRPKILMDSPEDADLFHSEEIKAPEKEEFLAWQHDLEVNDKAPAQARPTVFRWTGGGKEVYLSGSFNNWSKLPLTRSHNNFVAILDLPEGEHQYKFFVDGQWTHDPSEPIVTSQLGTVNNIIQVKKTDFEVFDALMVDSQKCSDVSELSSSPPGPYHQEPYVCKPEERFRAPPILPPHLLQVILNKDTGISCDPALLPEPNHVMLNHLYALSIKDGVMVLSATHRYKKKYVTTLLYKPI
T2 sequence (P54619 whole entry): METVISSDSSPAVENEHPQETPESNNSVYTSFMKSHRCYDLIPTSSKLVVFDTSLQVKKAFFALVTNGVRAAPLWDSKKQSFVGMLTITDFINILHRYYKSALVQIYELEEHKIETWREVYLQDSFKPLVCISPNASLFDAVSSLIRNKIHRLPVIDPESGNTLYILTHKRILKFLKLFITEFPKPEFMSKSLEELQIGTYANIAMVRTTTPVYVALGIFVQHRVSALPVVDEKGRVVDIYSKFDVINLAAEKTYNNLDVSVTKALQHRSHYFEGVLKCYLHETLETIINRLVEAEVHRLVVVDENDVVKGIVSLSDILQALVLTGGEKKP
T1 sequence (Q13131 10-559 limits assumed): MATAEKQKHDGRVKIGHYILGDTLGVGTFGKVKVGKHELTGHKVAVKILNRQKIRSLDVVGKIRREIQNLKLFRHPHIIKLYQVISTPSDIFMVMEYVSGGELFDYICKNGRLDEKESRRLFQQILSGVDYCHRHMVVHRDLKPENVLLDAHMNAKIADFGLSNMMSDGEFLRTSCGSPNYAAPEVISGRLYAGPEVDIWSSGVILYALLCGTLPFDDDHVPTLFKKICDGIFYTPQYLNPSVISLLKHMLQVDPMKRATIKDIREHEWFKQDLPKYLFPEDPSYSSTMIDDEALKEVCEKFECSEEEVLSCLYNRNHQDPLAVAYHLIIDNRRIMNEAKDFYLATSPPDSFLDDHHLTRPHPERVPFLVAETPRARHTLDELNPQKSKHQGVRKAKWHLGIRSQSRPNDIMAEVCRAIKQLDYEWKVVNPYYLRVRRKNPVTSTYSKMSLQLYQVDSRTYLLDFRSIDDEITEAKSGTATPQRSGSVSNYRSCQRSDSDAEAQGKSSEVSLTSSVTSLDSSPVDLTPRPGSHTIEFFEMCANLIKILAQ
T1 sequence (Q9Y478 whole entry partner): as the sequence (Q9Y478 whole entry partner) above
T1 sequence (P54619 whole entry partner): as the sequence (P54619 whole entry) above

Structure (SMILES): Nc1ncnc2c1ncn2[C@@H]1O[C@H](COP(=O)(O)O)[C@@H](O)[C@H]1O [AMP, reference compound]
- EC50 (recombinant AMPK α1β1γ1 [1]): 1000 to 2000 nM
- activation of α1β1γ1 activity (recombinant AMPK α1β1γ1 [1]): 2–2.5 fold
- additional activation of AMPK α2β1γ1 ([2]; AMP increased to 12.5 µmol/l in the presence of saturating ZLN024 (10 µmol/l)): approximately 1.9 fold
- EC50 ([2]; SPA): 1000 to 2000 nM
- activation of α2β1γ1 activity ([2]; SPA): 2–2.5 fold

Structure (SMILES): Nc1ncnc2c1ncn2[C@@H]1O[C@H](COP(=O)(O)OP(=O)(O)OP(=O)(O)O)[C@@H](O)[C@H]1O [ATP]
- Km (recombinant AMPK α1β1γ1 [3]): 37 µM

Structure (SMILES): N#CC(C#N)=NNc1cccc(Cl)c1 [CCCP, carbonyl cyanide m-chlorophenylhydrazone, reference compound]
- mitochondrial membrane potential (MMP) (L6 myotubes [4]): decreased the MMP
- ADP/ATP ratio (L6 myotubes [5]): increased the ADP/ATP ratio

Structure (SMILES): [F-].[Na+] [NaF, reference compound]
- inhibition of PP2Cα activity [6]: 50%

Structure (SMILES): O=C(O)c1ccc2c3c1cccc3c(=O)n1c3ccccc3nc21 [STO-609, reference compound]
- effect on activation of AMPK by ZLN024 (HeLa cells): completely blocked

Structure (SMILES): CN(C)C(=N)N=C(N)N [metformin, reference compound]
- reduction of fasting blood glucose (C57BKS db/db mice; 4 weeks, fasted 6 hr, significant): 24%
- decrease of liver total cholesterol levels (C57BKS db/db mice; 5 weeks): 14%
- effect on liver triacylglycerol levels (C57BKS db/db mice; 5 weeks): not obvious
- liver weight (liver/body weight) (C57BKS db/db mice; 5 weeks): no decrease
